Among the data in patent US8552037B2, “Tricyclic compound and pharmaceutical use thereof” (Takeda Pharmaceutical Company Limited, priority 2006, dated 2013) are melting point and IC50 values, retold here.

The target in data set [1] is human melatonin 2 receptors (human MT2 receptors) (Homo sapiens (Human), UniProt P49286). Briefly: Melatonin receptor binding assay, 2-[125I] Iodomelatonin, CHO-hMT2 cell membrane fraction. Particulars: binding inhibition of 2-[125I] Iodomelatonin, CHO-hMT2 membranes, 25° C., 2.5 hr. As to the method: (§1) Melatonin Receptor Binding Assay
human melatonin 2 receptors (human MT2 receptors), sequence (P49286 whole entry): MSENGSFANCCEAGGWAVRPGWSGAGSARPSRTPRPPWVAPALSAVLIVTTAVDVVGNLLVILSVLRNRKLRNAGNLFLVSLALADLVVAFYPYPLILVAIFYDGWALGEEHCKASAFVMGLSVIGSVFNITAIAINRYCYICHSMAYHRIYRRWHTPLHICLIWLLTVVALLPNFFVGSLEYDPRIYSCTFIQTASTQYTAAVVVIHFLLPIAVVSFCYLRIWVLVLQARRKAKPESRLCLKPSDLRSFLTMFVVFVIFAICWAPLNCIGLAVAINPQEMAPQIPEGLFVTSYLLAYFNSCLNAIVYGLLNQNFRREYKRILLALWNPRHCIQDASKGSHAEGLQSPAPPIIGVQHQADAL
(2) Preparation of CHO-hMT2 Cells Expressing Human Melatonin 2 Receptors
CHO-K1 cells (ATCC, #CCL-61) were plated at the concentration of 1.5×10^5 cells/cm^2 in a 6 well plate (ASAHI TECHNO GLASS), and cultured under the conditions of 37° C., 5% CO2 for 24 hr.
(§2) (3) Preparation of Cell Membrane Fraction of CHO Cell (CHO-hMelR7 and CHO-hMT2) Stably Expressing Human MT1 and MT2 Receptors
(§3) CHO-hMelR7 and CHO-hMT2 cells were plated using Cellfactory (Nunc, #170009) under the conditions of 1×10^8 cells/2000 mL/flask. The cells were grown to confluent, and recovered by the following method. As the medium for CHO-hMelR7 and CHO-hMT2, MEM α containing 10% FBS and penicillin/streptomycin was used. […] of geneticin was added to the medium for CHO-hMT2.
(§4) The medium was discarded, cells were washed twice with 200 mL of EDTA/PBS(−), 200 mL of EDTA/PBS(−) was further added, and the cells were stood still at room temperature for 20 min until they were released. […] The mixture was further centrifuged at 1,500 rpm for 10 min at 4° C., and the obtained pellets were suspended in 20 mL of ice-cooled homogenizing buffer [10 mM NaHCO3, 5 mM EDTA, Protease inhibitor Complete (Roche), pH 7.4]. The cell suspension was homogenized 3 times using a polytron homogenizer at 20,000 rpm for 30 sec. The obtained homogenate was centrifuged (2,000 rpm, 10 min, 4° C.) using a low speed cooling centrifuge. The supernatant was recovered in an ultracentrifugation tube and ultracentrifuged (40,000 rpm, 60 min, 4° C.) using an ultracentrifuge (Beckman, L-90K). To the obtained pellets was added a suspending buffer [50 mM Tris-HCl, 1 mM EDTA, Protease inhibitor Complete (Roche), pH 7.4], and the pellets were suspended by pipetting. The protein concentration of this suspension was measured, diluted to 2 mg/mL to give cell membrane fractions of CHO-hMelR7 and CHO-hMT2 cells. […] Protein was quantified using BCA protein assay kit (Pierce) with BSA as the standard.
(§5) (4) Preparation of Membrane Fraction Suspension
(§6) Immediately before use, the membrane fractions of CHO-hMelR7 and CHO-hMT2 cells of the above-mentioned (3) were diluted 20-fold with assay buffer (50 mM Tris-HCl, pH 7.7).
(§7) Iodomelatonin (#NEX236, PerkinElmer) was diluted with the assay buffer to 400 pM for MT1 and 1 nM for MT2.
(§8) Then, a test compound (compound solution diluted with DMSO to 200-fold of the final measurement concentration) was added by 2 μL. 2 μL of DMSO was added to each well of the total binding control section, and 100 μM cold Melatonin solution (Sigma, diluted with DMSO to 100 μM) was added to each well of the nonspecific binding control section by 2 μL. Then, the membrane fraction suspension (100 μL) was added. […] Iodomelatonin solution of the above-mentioned (5) was added to each well mentioned above by 20 μL, and a binding reaction was carried out at 25° C. for 2.5 hr in a micromixer (TAITEC, Bioshaker M.BR-024).
(§9) Using a cell harvester (PerkinElmer), the binding reaction mixture in each well of the 96-well plate was transferred to a treated (immersed in 50 mM Tris, pH 7.7 in advance) filter plate (UniFilter GF/C, PerkinElmer) and filtered. After filtration, the plate was washed 4 times with the assay buffer, and dried in a dryer (42° C.) for 2 hr or more. 25 μL of a liquid scintillator (MicroScint O, PerkinElmer) was added to each well of the filter plate after drying, and the luminescence of scintillator was measured by TopCount (PerkinElmer) for 1 min.
(§10) Specific binding is a value obtained by subtracting nonspecific binding from the total binding. The binding inhibitory activity of the test compound is shown by the ratio of the value obtained by subtracting the measurement value when the test compound was added from the total binding, to the specific binding.

In data set [2] the target is human melatonin 1 receptors (human MT1 receptors) (Homo sapiens (Human), UniProt P48039). Briefly: Melatonin receptor binding assay, 2-[125I] Iodomelatonin, CHO-hMelR7 cell membrane fraction. Particulars: binding inhibition of 2-[125I] Iodomelatonin, CHO-hMelR7 membranes, 25° C., 2.5 hr. On the procedure: as §1
human melatonin 1 receptors (human MT1 receptors), sequence (P48039 whole entry): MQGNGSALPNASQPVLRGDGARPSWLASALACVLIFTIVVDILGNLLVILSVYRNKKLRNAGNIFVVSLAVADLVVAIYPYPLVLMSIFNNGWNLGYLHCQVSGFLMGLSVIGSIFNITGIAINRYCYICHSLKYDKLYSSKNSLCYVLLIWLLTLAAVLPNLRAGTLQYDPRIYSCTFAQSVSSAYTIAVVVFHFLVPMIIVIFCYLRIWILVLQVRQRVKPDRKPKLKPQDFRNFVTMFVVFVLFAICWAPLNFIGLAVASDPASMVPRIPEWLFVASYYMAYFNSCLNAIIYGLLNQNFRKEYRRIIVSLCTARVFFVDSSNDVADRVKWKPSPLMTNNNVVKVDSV
(1) Preparation of CHO-hMelR7 Cells Expressing Human Melatonin 1 Receptors
as §2, §3, §4, §5, §6, §7, §8, §9, §10

The melting point is the temperature, or range, at which the solid turns liquid. Broadly, the IC50 is the concentration at which inhibition is half-maximal. A high value points to weaker potency.

`CCC(=O)NCC=C1CCc2ccc3ncoc3c21` [Example 2, N-[2-(6,7-Dihydro-8H-indeno[5,4-d][1,3]oxazol-8-ylidene)ethyl]propionamide] displayed a melting point of 148 to 150 °C.

As to `CC(=O)NCC=C1CCc2ccc3nc(C)oc3c21` [Example 3, N-[2-(2-Methyl-6,7-dihydro-8H-indeno[5,4-d][1,3]oxazol-8-ylidene)ethyl]acetamide], the melting point was 188 to 190 °C. Moreover, the IC50 in data set [1] was 0.37 nM. The same molecule showed an IC50 in data set [2] of 0.33 nM.

With `CC(=O)NCCC1=CCc2ccc3nc(C)oc3c21` [Example 4, N-[2-(2-Methyl-6H-indeno[5,4-d][1,3]oxazol-8-yl)ethyl]acetamide], the melting point was in the range of 154 to 156 °C. In data set [1], this molecule displayed a concentration for half-maximal inhibition (IC50) of 0.24 nM. In data set [2], this molecule yielded an IC50 of 0.068 nM.

With `CCC(=O)NCC=C1CCc2ccc3nc(C)oc3c21` [Example 5, N-[2-(2-Methyl-6,7-dihydro-8H-indeno[5,4-d][1,3]oxazol-8-ylidene)ethyl]propionamide], the melting point is 214 to 216 °C. The 50% inhibitory concentration (IC50) in data set [1] was 0.22 nM. Also, the IC50 in data set [2] turned out to be 0.25 nM.

`CC(=O)NCC=C1CCc2ccc3nc(CCCCc4ccccc4)oc3c21` [Example 6, N-{2-[2-(4-Phenylbutyl)-6,7-dihydro-8H-indeno[5,4-d][1,3]oxazol-8-ylidene]ethyl}acetamide] registered a melting point of 113 to 115 °C. The molecule further registered an IC50 in data set [1] of 0.43 nM. The molecule further showed a half-maximal inhibitory concentration (IC50) in data set [2] of 0.079 nM.

Regarding `CCC(=O)NCC=C1CCc2ccc3nc(CCCCc4ccccc4)oc3c21` [Example 7, N-{2-[2-(4-Phenylbutyl)-6,7-dihydro-8H-indeno[5,4-d][1,3]oxazol-8-ylidene]ethyl}propionamide], the melting point was in the range of 111 to 113 °C.

The molecule `CC(=O)NCC=C1CCc2ccc3nc(C)sc3c21` [Example 8, N-[2-(2-Methyl-6,7-dihydro-8H-indeno[5,4-d][1,3]thiazol-8-ylidene)ethyl]acetamide] showed a melting point of 184 to 186 °C. For the same molecule, the IC50 in data set [1] is 0.22 nM. This molecule also displayed a half-inhibitory concentration (IC50) in data set [2] of 0.19 nM.

As to `CC(=O)NCCC1CCc2ccc3ncoc3c21` (stereo not drawn) [Example 9, N-[2-(7,8-Dihydro-6H-indeno[5,4-d][1,3]oxazol-8-yl)ethyl]acetamide], the IC50 in data set [1] is 0.31 nM; in data set [2], 0.88 nM.

`CCC(=O)NCCC1CCc2ccc3ncoc3c21` (stereo not drawn) [Example 10, N-[2-(7,8-Dihydro-6H-indeno[5,4-d][1,3]oxazol-8-yl)ethyl]propionamide] registered a melting point of 89 to 90 °C.

With `CC(=O)NCCC1CCc2ccc3nc(C)oc3c21` (stereo not drawn) [Example 11, N-[2-(2-Methyl-7,8-dihydro-6H-indeno[5,4-d][1,3]oxazol-8-yl)ethyl]acetamide], the 50% inhibitory concentration (IC50) was 0.31 nM in data set [1] and 0.15 nM in data set [2].

`CC(=O)NCC[C@H]1CCc2ccc3nc(C)oc3c21` [Example 13, (R)-N-[2-(2-Methyl-7,8-dihydro-6H-indeno[5,4-d][1,3]oxazol-8-yl)ethyl]acetamide]: the results for the concentration for half-maximal inhibition (IC50) in data set [1] and in data set [2] were 9.6 nM and 15 nM, respectively.

On to `CCC(=O)NCCC1CCc2ccc3nc(C)oc3c21` (stereo not drawn) [Example 14, N-[2-(2-Methyl-7,8-dihydro-6H-indeno[5,4-d][1,3]oxazol-8-yl)ethyl]propionamide], for which the half-inhibitory concentration (IC50) in data set [1] was determined as 0.28 nM; in data set [2], 0.13 nM.

`CCC(=O)NCC[C@H]1CCc2ccc3nc(C)oc3c21` [Example 16, (R)-N-[2-(2-Methyl-7,8-dihydro-6H-indeno[5,4-d][1,3]oxazol-8-yl)ethyl]propionamide]: the figures for the IC50 in data set [1] and in data set [2] were 6.2 nM and 11 nM, respectively.

Consider `CC(=O)NCCC1CCc2ccc3nc(CCCCc4ccccc4)oc3c21` (stereo not drawn) [Example 17, N-{2-[2-(4-Phenylbutyl)-7,8-dihydro-6H-indeno[5,4-d][1,3]oxazol-8-yl]ethyl}acetamide], for which the figures for the 50% inhibitory concentration (IC50) in data set [1] and in data set [2] were 0.091 nM and 0.022 nM, respectively.

As to `CC(=O)NCC[C@H]1CCc2ccc3nc(C)sc3c21` [Example 21, (R)-N-[2-(2-Methyl-7,8-dihydro-6H-indeno[5,4-d][1,3]thiazol-8-yl)ethyl]acetamide], the figures for the 50% inhibitory concentration (IC50) in data set [1] and in data set [2] were 8.5 nM and 19 nM, respectively.

`CCc1nc2ccc3c(c2o1)C(CCNC(C)=O)CC3` (stereo not drawn) [Example 22, N-[2-(2-Ethyl-7,8-dihydro-6H-indeno[5,4-d][1,3]oxazol-8-yl)ethyl]acetamide] displayed a melting point of 76 to 78 °C. In data set [1], this molecule yielded an IC50 of 0.41 nM. In data set [2], this molecule gave a concentration for half-maximal inhibition (IC50) of 0.36 nM.

Turning to `CC(=O)NCCC1CCc2ccc3nc(CO)oc3c21` (stereo not drawn) [Example 23, N-{2-[2-(Hydroxymethyl)-7,8-dihydro-6H-indeno[5,4-d][1,3]oxazol-8-yl]ethyl}acetamide], the melting point is 132 to 134 °C.

`CC(=O)NCCC1CCc2ccc3nc(C(F)(F)F)oc3c21` (stereo not drawn) [Example 25, N-{2-[2-(Trifluoromethyl)-7,8-dihydro-6H-indeno[5,4-d][1,3]oxazol-8-yl]ethyl}acetamide] showed a melting point of 114 to 116 °C.

For the molecule `CC(=O)CCc1nc2ccc3c(c2o1)C(CCNC(C)=O)CC3` (stereo not drawn) [Example 28, N-{2-[2-(3-Oxobutyl)-7,8-dihydro-6H-indeno[5,4-d][1,3]oxazol-8-yl]ethyl}acetamide], the melting point lay within 111 to 112 °C.

On to `CC(=O)NCCC1CCc2ccc3nc(-c4ccccc4)oc3c21` (stereo not drawn) [Example 30, N-[2-(2-Phenyl-7,8-dihydro-6H-indeno[5,4-d][1,3]oxazol-8-yl)ethyl]acetamide], for which the melting point lay in the range of 124 to 126 °C.

As to `CC(=O)NCCC1CCc2ccc3nc(CCc4ccccc4)oc3c21` (stereo not drawn) [Example 32, N-{2-[2-(2-Phenylethyl)-7,8-dihydro-6H-indeno[5,4-d][1,3]oxazol-8-yl]ethyl}acetamide], the melting point lay within 85 to 87 °C.

Molecule `CC(=O)NCCC1CCc2ccc3nc(CCCc4ccccc4)oc3c21` (stereo not drawn) [Example 33, N-{2-[2-(3-Phenylpropyl)-7,8-dihydro-6H-indeno[5,4-d][1,3]oxazol-8-yl]ethyl}acetamide] registered a melting point of 95 to 97 °C.

Take `CSc1nc2ccc3c(c2o1)C(CCNC(C)=O)CC3` (stereo not drawn) [Example 39, N-{2-[2-(Methylthio)-7,8-dihydro-6H-indeno[5,4-d][1,3]oxazol-8-yl]ethyl}acetamide]: the melting point is 115 to 117 °C.

Turning to `Cc1nc2ccc3c(c2o1)C(CCNC(=O)c1ccccc1)CC3` (stereo not drawn) [Example 44, N-[2-(2-Methyl-7,8-dihydro-6H-indeno[5,4-d][1,3]oxazol-8-yl)ethyl]benzamide], the melting point is 73 to 76 °C.

Molecule `CCNC(=O)NCCC1CCc2ccc3nc(C)oc3c21` (stereo not drawn) [Example 46, 1-Ethyl-3-[2-(2-methyl-7,8-dihydro-6H-indeno[5,4-d][1,3]oxazol-8-yl)ethyl]urea] registered a melting point of 136 to 138 °C.

`CC(=O)NCCC1=C(C(C)C)Cc2ccc3nc(C)oc3c21` [Example 49, N-[2-(7-Isopropyl-2-methyl-6H-indeno[5,4-d][1,3]oxazol-8-yl)ethyl]acetamide] came in with a melting point of 135 to 138 °C.
